Measured values: PubChem BioAssay AID2060325 (Molecular Pharmacology Branch, DTP, NCI, 2025)
“And” between values parts separate entries of the source, which are not always exact repeats. Equal entries are not always repeated.

Tested on: SK-OV-3 multi-cell spheroids, viability
Test: Anticancer human tumor SK-OV-3 cell line growth inhibition [IpAb];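 for viability, T/C: viability read after seven days of drug exposure; percent of DMSO vehicle control luminescence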
Details: for viability, T/C: stronger effect = lower value
Text: Combinatorial screen of targeted agents with ipatasertib and abemaciclib in multi-cell type tumor spheroids
A high-throughput screen of multi-cell type tumor spheroids was designed to identify active combinations of targeted small molecules and ipatasertib or abemaciclib. Complex spheroids include a stromal component modeled by human endothelial cells (HUVEC) and fibroblasts modeled by human mesenchymal stem cells (MSCs). The concentration ranges selected for each drug and investigational agent were based upon clinically achievable concentrations if the clinical Cmax of the agent was known.
Compounds. The drugs and investigational agents: ipatasertib (NSC767898), abemaciclib(NSC768073), selumetinib (NSC741078), trametinib (758246), adavosertib (NSC754352), everolimus (NSC733504), sapanisertib (NSC764658), vemurafenib (NSC761431), venetoclax (NSC766270), copanlisib (NSC809693), apelisib (NSC765974), palbociblib (NSC758247), vemurafenib (NSC761431), dabrafenib (NSC764134), ravoxertinib (NSC781343), BMS-387032 (NSC767048), sotorasib (NSC818433), talazoparib (NSC767125) and afursertib (NSC778305), were obtained from the National Cancer Institute (NCI) Developmental Therapeutics Program Chemical Repository. The FDA-approved anticancer drug set is available from the NCI Developmental Therapeutics Program. […] The stock solutions were prepared in dimethyl sulfoxide (DMSO, Sigma-Aldrich, St. Louis, MO, cat. D2650) at 800-fold the tested concentration and stored at -70 degrees C prior to their use. All drugs and investigational agents were tested over a range starting from a high concentration at or near the clinical Cmax and decreasing in half-log increments. If the clinical Cmax for an agent had not been determined, the highest concentration tested was 10 microM.
NCI60 Cell Culture. NCI60 cell lines were obtained from the NCI Developmental Therapeutics Program Tumor Repository. For each lot of cells, the Repository performed Applied Biosystems AmpFLSTR Identifiler testing with PCR amplification to confirm consistency with the published Identifier STR profile for each cell line. Cells were kept in continuous culture for no more than 20 passages. The optimal seeding densities for each of the cell lines at each time point assessed were determined prior to performing the concentration response studies. Briefly, the NCI60 human tumor lines were grown as monolayers in RPMI 1640 medium supplemented with 10% FBS and 2 mmol/L L-glutamine.
An additional 9 lines were from the NCI60 cell line panel including MDA-MB-231 breast carcinoma, MDA-MB-468 breast carcinoma, MCF7 breast carcinoma, Hs578T breast carcinoma, MALME-3M melanoma, SK-MEL-2 melanoma, SK-OV-3 ovarian carcinoma, DU-145 prostate carcinoma, PC-3 prostate carcinoma, all cell lines along with major genetic alterations are listed on Table 2. Pooled donor human umbilical vein endothelial cells (HUVEC, Lonza, cat. CC-2519) and human mesenchymal stem cells (hMSC, Lonza, cat. PT-2501) were purchased from Lonza (Walkersville, MD).
PDMR cell lines were grown in complete medium (DC medium): Dulbecco's modified Eagle's medium (DMEM)/F12 supplemented with 5% fetal bovine serum (FBS), 2 mM L-glutamine, 100 U/mL penicillin and 100 µg/ml streptomycin, 0.4 µg/ml hydrocortisone, 10 ng/ml epidermal growth factor (EGF) recombinant human protein, 24 µg/mL adenine, and 0.1 mg/mL primocin. During culture from frozen stock vials, PDMR cells were cultured in the same medium containing 10 µM Y-27632 (see Table 3). The PDCs were cultured in complete DMEM/F12 media without 10 microM Y-27632 dihydrochloride for at least two passages prior to the screen. The pooled donor HUVEC and hMSC were cultured in endothelial cell growth medium 2 (PromoCell, Heidelberg, Germany, cat. C-22011) and mesenchymal stem cell growth medium 2 (PromoCell, cat. C-28009), respectively. For all experiments, HUVEC and hMSC were used at passages </=5.
[…]

IC50 (curve of compound)	Compound	viability, T/C (compound 0.0316 µM)	viability, T/C (compound 0.1 µM)	viability, T/C (compound 0.316 µM)	viability, T/C (compound 1 µM)	viability, T/C (compound 3.16 µM)	viability, T/C (compound 10 µM)	viability, T/C (compound 0.01 µM)	also measured
> 10000 nM	C=CC(=O)N1CCN(c2nc(=O)n(-c3c(C)ccnc3C(C)C)c3nc(-c4c(O)cccc4F)c(F)cc23)C(C)C1 (configuration not stated)	100% and 104%	107% and 105%	111% and 117%	115% and 130%	125% and 120%	77.3% and 82.5%		
139 nM and 128 nM	C=CCn1c(=O)c2cnc(Nc3ccc(N4CCN(C)CC4)cc3)nc2n1-c1cccc(C(C)(C)O)n1	89.6% and 97.2%	64.6% and 59.2%	13.3% and 15.5%	8.1% and 7.49%	4.13% and 4.87%	6.98% and 5.63%		
> 300 nM and 253 nM	CC(=O)c1c(C)c2cnc(Nc3ccc(N4CCNCC4)cn3)nc2n(C2CCCC2)c1=O								viability, T/C (compound 0.000949 µM): 95.2% and 104%; viability, T/C (compound 0.003 µM): 88.7% and 83.4%; viability, T/C (compound 0.00949 µM): 75.1% and 80.8%; viability, T/C (compound 0.03 µM): 60.9% and 56.5%; viability, T/C (compound 0.0949 µM): 56.6% and 55%; viability, T/C (compound 0.3 µM): 54.1% and 49.9%
189 nM and 212 nM	CC(C)(C)c1cnc(CSc2cnc(NC(=O)C3CCNCC3)s2)o1								viability, T/C (compound 0.00949 µM): 111% and 106%; viability, T/C (compound 0.03 µM): 119% and 113%; viability, T/C (compound 0.0949 µM): 120% and 117%; viability, T/C (compound 0.3 µM): 14.5% and 23.1%; viability, T/C (compound 0.949 µM): 0.98% and 1.33%; viability, T/C (compound 3 µM): 0.95% and 1.2%
	CC(C)NCC(C(=O)N1CCN(c2ncnc3c2C(C)CC3O)CC1)c1ccc(Cl)cc1 (configuration not stated)		69% [middle of 13 runs]	37.8% [middle of 13 runs]	21.5% [middle of 13 runs]	15.8% [middle of 13 runs]	10.5% [middle of 12 runs]		IC50 (compound alone, run of 05/18/2021): 202 nM [middle of 13 runs]
2.13 nM and 2.54 nM	CC(C)n1nc(-c2ccc3oc(N)nc3c2)c2c(N)ncnc21	10.8% and 11.2%	7.02% and 7.25%					19.2% and 21.4%	viability, T/C (compound 0.000316 µM): 90.3% and 86.6%; viability, T/C (compound 0.001 µM): 71.8% and 76.2%; viability, T/C (compound 0.00316 µM): 37.6% and 42.3%
4560 nM and 4020 nM	CC1(C)CCC(CN2CCN(c3ccc(C(=O)NS(=O)(=O)c4ccc(NCC5CCOCC5)c([N+](=O)[O-])c4)c(Oc4cnc5[nH]ccc5c4)c3)CC2)=C(c2ccc(Cl)cc2)C1	108% and 100%	105% and 103%	104% and 112%	96.4% and 94.5%	61.8% and 62.1%	24.5% and 5.23%		
7130 nM and 9740 nM	CCCS(=O)(=O)Nc1ccc(F)c(C(=O)c2c[nH]c3ncc(-c4ccc(Cl)cc4)cc23)c1F	116% and 100%	101% and 100%	108%	102% and 108%	89.4% and 88.4%	33.9% and 49.1%		
	CCN1CCN(Cc2ccc(Nc3ncc(F)c(-c4cc(F)c5nc(C)n(C(C)C)c5c4)n3)nc2)CC1	71.2% [middle of 13 runs]	54.8% [middle of 13 runs]	53.6% [middle of 13 runs]	43.7% [middle of 13 runs]			87.1% [middle of 13 runs]	
8.71 nM and 9.06 nM	COc1c(OCCCN2CCOCC2)ccc2c3n(c(=NC(=O)c4cnc(N)nc4)nc12)CCN3	11.5% and 12.2%	7.4% and 8.86%	6.39% and 5.98%	4.6% and 3.86%			44.2% and 46.4%	viability, T/C (compound 0.00316 µM): 92.7% and 89.1%
